Article PMC7013532, “Scenarios of Genes-to-Terpenoids Network Led to the Identification of a Novel α/β-Farnesene/β-Ocimene Synthase in Camellia sinensis” (International Journal of Molecular Sciences, 2020)

Target: TPS2 (Camellia sinensis, UniProt A0A3G3IRF8)
Assay: SPME GC-MS product analysis
Assay type: biochemical
Conditions: pH 7.5, 50 mM Tris-HCl, 10 mM MgCl2, 5 mM DTT, 30 °C

Sequence of TPS2 (A0A3G3IRF8 entry or part of it): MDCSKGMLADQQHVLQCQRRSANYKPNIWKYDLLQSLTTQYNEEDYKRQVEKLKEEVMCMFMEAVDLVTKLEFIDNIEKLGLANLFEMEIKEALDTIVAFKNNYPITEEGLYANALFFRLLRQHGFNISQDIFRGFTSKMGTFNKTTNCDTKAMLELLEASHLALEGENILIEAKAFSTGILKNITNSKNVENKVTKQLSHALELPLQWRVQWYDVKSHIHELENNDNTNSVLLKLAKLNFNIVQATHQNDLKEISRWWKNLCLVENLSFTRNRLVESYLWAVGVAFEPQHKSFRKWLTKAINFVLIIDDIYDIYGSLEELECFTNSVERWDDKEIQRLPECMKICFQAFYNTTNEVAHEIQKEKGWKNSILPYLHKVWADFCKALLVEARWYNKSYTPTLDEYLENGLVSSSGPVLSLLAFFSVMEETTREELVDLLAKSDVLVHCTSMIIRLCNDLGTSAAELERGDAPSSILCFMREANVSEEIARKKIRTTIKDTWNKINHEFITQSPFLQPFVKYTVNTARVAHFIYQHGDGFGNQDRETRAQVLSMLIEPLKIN

SMILES: CC(C)=CCC/C(C)=C/CC/C(C)=C/COP(=O)(O)OP(=O)(O)O [FPP]
- SPME GC-MS product analysis (products beta-farnesene (main) and alpha-farnesene): The main product produced by TPS2 using FPP as a substrate was β-farnesene

SMILES: CC(C)=CCC/C(C)=C/COP(=O)(O)OP(=O)(O)O [GPP]
- SPME GC-MS product analysis (product beta-ocimene): β-ocimene is the resulting product when using GPP is used as the substrate
